Tests used:
female NMRI mice = assay: Anorectic action: cumulative evaporated milk consumption after 24 h removal of feed; format: in vivo; details: dose 20 mg/kg (ip or po, route not specified)
Protocol: The anorectic action was tested on female NMRI mice. After removal of feed for 24 hours, the preparation to be tested was administered intraperitoneally (ip) or by gavage (po). The animals were housed singly and, with free access to drinking water, they were offered evaporated milk 30 minutes after administration of the preparation. The consumption of evaporated milk was determined and the general behavior of the animals was monitored every half an hour for 7 hours. The measured milk consumption was compared to that of vehicle-treated control animals.

CS(=O)(=O)C1(F)Cc2cc(Cl)ccc2C1O (stereo not drawn) [Example 1, 5-Chloro-2-fluoro-2-methanesulfonylindan-1-ol]
Reduction in cumulative milk consumption as % of the control (female NMRI mice; compared with untreated control animals): 46%
cumulative milk consumption by treated animals (female NMRI mice; feed removed 24 h, milk offered 30 min after administration, monitored for 7 hours): 5/2.06 ml
melting point: 101 °C

Source: patent US6982353B2, “C2-disubstituted indan-1-ol compounds, their derivatives, processes for their preparation, and their use as pharmaceuticals” (Aventis Pharma Deutschland GmbH, priority 2001, dated 2006)
